Patent US10265378B2, “Combination therapy for head and neck cancer” (Cornell University, priority 2014, dated 2019)

What was measured:
[1] = Mouse serum triglyceride level measurements; assay type: in vivo; settings: treatment for 15 weeks; compared to the UNT group
Description: Mouse serum triglyceride level measurements. Blood samples from the mice were obtained from mouse tails. The analysis of serum triglyceride levels was carried out at the Laboratory of Comparative Pathology of the Memorial Sloan-Kettering Cancer Center. UNT (n=4); 4-NQO (n=3); 4N+B (n=4); 4N+C (n=3), and 4N+B+C (n=4).

[2] = tested on: mouse tongue mRNA transcriptome; assay: RNA-Seq analysis of the mRNA transcriptome of mouse tongues; assay type: in vivo; settings: compared to the 4-NQO group
Description: RNA-Seq analysis of the mRNA transcriptome. One part of each mouse tongue (same position on each mouse tongue) was snap frozen in liquid N2 and stored at −70° C. until total RNA extraction. Total tissue RNA was extracted and subjected to Next-Generation Sequencing (RNA-Seq) at the Genomics Resources Core Facility, Weill Cornell Medical College. Bioinfomatics analyses were performed using the Tophat and Cufflink software. (supporting information).
RNA-Seq analysis of mRNA transcriptome. […] The GEO Accession number is GSE54246; embargoed until publication.

[3] = tested on: GO categories in mouse tongue; assay: Gene ontology (GO) analysis of RNA-Seq data; assay type: in vivo; settings: compared to the 4-NQO group
Description: Gene ontology (GO) analysis. Gene ontology (GO) analysis (p-value cutoff: 0.00001), using the ConsensusPathDB online tool, was conducted on the Gene Ontology level 3 of the “Biological Process” domain that has predefined, functional sets for enrichment analysis with default parameter settings.

[4] = tested on: 4-hydroxynonenal (4-HNE), marker of oxidative stress; assay: Immunohistochemistry of tongue epithelium: 4-HNE; assay type: in vivo, mouse; settings: compared to the 4-NQO group; antibody staining
Description: (§1) Immunohistochemistry. Paraffin embedded tongue sections were stained with various antibodies (supporting information).
(§2) Immunohistochemistry. Paraffin-embedded sections (from two to four mice per group) were deparaffinized and rehydrated, and antigen retrieval was performed using an antigen unmasking solution (Vector Laboratories, H-3300). After quenching endogenous peroxidase with 3% H2O2, the tissue sections were blocked with the blocking reagent (from the M.O.M. kit from Vector Laboratories for 4-HNE) or 10% goat serum (Vector Laboratories). Then, tissue sections were incubated with a 4-HNE antibody (1:700; mouse monoclonal antibody; Abcam, ab48506), a β-catenin antibody (1:400; rabbit polyclonal antibody; Abcam, ab6302), or a MMP9 antibody (1:70; rabbit polyclonal antibody; Abcam, ab38898), respectively, overnight at 4° C. The sections were then incubated with secondary antibodies (1:200, anti-mouse IgG from the M.O.M kit for 4-1-INE; ready-to-use anti-rabbit IgG from the Invitrogen SuperPicture kit for β-catenin and MMP9). As a negative control, sections were stained without incubation with primary antibodies. The signals were visualized based on a peroxidase detection mechanism with 3,3-diaminobenzidine (DAB) used as the substrate. Four to five representative areas of each mouse tongue section from two to four mice per group were photographed and analyzed.

β-catenin = assay: Immunohistochemistry of tongue epithelium: β-catenin; assay type: in vivo, mouse; settings: compared to the 4-NQO group; antibody staining
Description: as §1, §2

IL-6 = assay: Immunohistochemistry of tongue epithelium: IL-6; assay type: in vivo, mouse; settings: compared to the 4-NQO group; antibody staining
Description: (§3) The tongues were fixed, embedded in paraffin, and sectioned. Then the tissue sections were stained with various antibodies (magnification, 200×). Four to five representative areas of each tongue section from two to four mice/group were photographed and analyzed (FIGS. 12A and 12B). Interleukin-6 (IL-6) is a multifunctional cytokine that is involved in the regulation of immune responses and cellular functions. IL-6 levels are enhanced in human oral squamous cell carcinoma and IL-6 is considered a bad prognostic factor in this cancer (Expert Opin Ther Targets. 2013 January; 17(1):53-9). IL-6 protein was detected primarily in the basal layer of tongue epithelium in the UNT samples (FIG. 12A, arrows), but in the 4-NQO treated samples we observed both an increase in the protein level and an expansion of IL-6 signal to the suprabasal layers of the tongue epithelium (FIG. 12A).

MCT4 = assay: Immunohistochemistry of tongue epithelium: MCT4; assay type: in vivo, mouse; settings: compared to the 4-NQO group; antibody staining
Description: as §3

[5] = Consumption of drug containing drinking water and diet; assay type: in vivo, mouse; settings: 4-NQO treated mice, 15 week post 4-NQO treatment
Description: Drug treatments reduce tongue tumor development. All of the mice tolerated the 10 week 4-NQO treatment, and almost all of the mice survived the 15 week post 4-NQO treatment period (A). We determined that the CD1530 in the regular drinking water was stable for at least 7 days at room temperature by HPLC analysis (FIG. 7); thus, we decided to use drinking water as a delivery method because this method is effective and less laborious.

[6] = tested on: pathways (Reactome, KEGG, MouseCyc) in mouse tongue; assay: Pathway enrichment analysis (ConsensusPathDB) of RNA-Seq data
Description: RNA-Seq analysis of mRNA transcriptome. Representative tongue samples were chosen for the RNA-Seq analysis: untreated (n=5), 4-NQO treatment group (n=3), 4N+B (n=4), 4N+C (n=4), and 4N+B+C (n=5). The extraction of total cellular RNA from mouse tissues was carried out using the RNeasy kit (Qiagen). Subsequent RNA preparation steps were carried out at the Genomics Resources Core Facility of WCMC. The measurement of RNA integrity was determined using the Agilent 2100 BioAnalyzer (Agilent Technologies). Samples with RNA integrity number (RIN) values of 10 were used to construct cDNA libraries. mRNA was purified by using pre-prepared Sera-mag Magnetic Oligo(dT) Beads from Illumina Inc. (SanDiego, Calif.), subjected to thermal fragmentation, and reverse transcribed to first strand cDNA. Following the removal of mRNA strands by RNaseH, first strand cDNAs were used as templates to produce double strand cDNAs, and the overhangs resulting from fragmentation were repaired to blunt ends. An ‘A’ base was added to the 3′ end of cDNAs and subsequently the cDNAs were ligated to Illumina paired end (PE) adaptors that have a single ‘T’ base overhang at their 3′ end. The cDNA-adaptor libraries were purified and enriched by 15 cycles of PCR. The enriched libraries were hybridized to a flow cell and amplified, resulting in ultra-high density flow cells with millions of clusters, each containing about 1,000 copies of the templates. The double stranded cDNA-adaptors were denatured and converted into single strand DNA, and then the template cDNAs were amplified one more time isothermally to produce surface-bound colonies. The clonal DNA clusters were linearized, free 3′ OH ends blocked, denatured, hybridized to sequencing primers, and sequenced. The sequencing was conducted by running 4 samples per lane with 51 pair-end cycles on the HISeq2000/1000. The Sequencing-by-Synthesis process used reversible terminators and a DNA polymerase modified to accept reversible terminator nucleotides. After each synthesis cycle the fluorescence of clusters was imaged with high sensitivity. Then the sequencing images were analyzed in three steps, image analysis, base calling, and sequence analysis. The Tophat software was used to align raw sequencing reads against the UCSC mm9 mouse reference genome, and Cufflinks software was employed to measure transcript abundances in the unit of fragments per kilobase of exon model per million mapped reads (FPKM), as well as to perform statistical analysis on the changes in gene expression. The heat maps for genes of interest were generated by R package software.

[7] = tested on: tongue lesions (4-NQO induced oral cavity carcinogenesis); assay: 4-NQO mouse oral cavity carcinogenesis model: gross tongue lesion number and severity
[8] = down-regulated vs. 4-NQO group, KEGG
[9] = down-regulated vs. 4-NQO group, Reactome
[10] = upregulated vs. 4-NQO group, KEGG

Which results are given for C=C(c1ccc(C(=O)O)cc1)c1cc2c(cc1C)C(C)(C)CCC2(C)C [bexarotene]?
serum triglyceride levels [1]: did not change serum triglyceride levels significantly; transcript levels of DNA replication genes (MCM 2-7 and 10, DNA2, LIG1, ORC1, POLA1, PRIM2) [2]: significantly lower transcript levels of the majority of these genes; number of genes with decreased transcript levels ([2]; p<0.05): 614; number of genes with increased transcript levels ([2]; p<0.05): 436; number of genes with significantly different transcript levels ([2]; p<0.05): 1050; GO categories related to cell cycle, DNA replication, and mitosis [3]: most under-expressed; 4-HNE levels in tongue samples [4]: lower; β-catenin protein levels in the tongue epithelium (β-catenin): lower β-catenin protein levels; IL-6 protein levels in the tongue epithelium (IL-6): lower IL-6 protein levels; MCT4 protein levels in the tongue epithelium (MCT4): lower MCT4 protein levels; consumption of drug containing diet vs regular diet [5]: comparable; candidates contained, pathway Cell cycle-Mus musculus (mouse) [6, 8]: 19 (15.0%); candidates contained, pathway Complement and coagulation cascades-Mus musculus (mouse) [6, 8]: 21 (27.6%); candidates contained, pathway Retinol metabolism-Mus musculus (mouse) [6, 8]: 14 (17.7%); candidates contained, pathway Activation of ATR in response to replication stress [6, 9]: 10 (26.3%); candidates contained, pathway Activation of the pre-replicative complex [6, 9]: 9 (31.0%); candidates contained, pathway Cell Cycle [6, 9]: 46 (15.1%); candidates contained, pathway Cell Cycle Checkpoints [6, 9]: 16 (20.8%); candidates contained, pathway Cell Cycle, Mitotic [6, 9]: 44 (16.4%); candidates contained, pathway Common Pathway [6, 9]: 6 (46.2%); candidates contained, pathway DNA Replication [6, 9]: 34 (21.7%); candidates contained, pathway DNA Replication Pre-Initiation [6, 9]: 10 (27.8%); candidates contained, pathway Formation of Fibrin Clot (Clotting Cascade) [6, 9]: 10 (29.4%); candidates contained, pathway G1/S Transition [6, 9]: 12 (19.4%); candidates contained, pathway G2/M Checkpoints [6, 9]: 13 (28.9%); candidates contained, pathway HDL-mediated lipid transport [6, 9]: 7 (41.2%); candidates contained, pathway Hemostasis [6, 9]: 37 (12.3%); candidates contained, pathway Lipid digestion, mobilization, and transport [6, 9]: 11 (22.4%); candidates contained, pathway Lipoprotein metabolism [6, 9]: 11 (35.5%); candidates contained, pathway M Phase [6, 9]: 22 (22.2%); candidates contained, pathway M/G1 Transition [6, 9]: 10 (27.8%); candidates contained, pathway Metabolism of amino acids and derivatives [6, 9]: 21 (16.9%); candidates contained, pathway Mitotic G1-G1/S phases [6, 9]: 14 (19.2%); candidates contained, pathway Mitotic M-M/G1 phases [6, 9]: 32 (23.7%); candidates contained, pathway Mitotic Prometaphase [6, 9]: 21 (22.1%); candidates contained, pathway Phenylalanine and tyrosine catabolism [6, 9]: 5 (62.5%); candidates contained, pathway Platelet degranulation [6, 9]: 15 (23.4%); candidates contained, pathway Response to elevated platelet cytosolic Ca2+ [6, 9]: 15 (21.4%); candidates contained, pathway Calcium signaling pathway-Mus musculus (mouse) [6, 10]: 15 (8.4%); candidates contained, pathway Gastric acid secretion-Mus musculus (mouse) [6, 10]: 10 (13.7%); number of tongue lesions (gross tongue lesion multiplicity) ([7]; C57BL/6 female mice, 4-NQO 10 weeks, then drug in 15 week post 4-NQO period, bexarotene 300 mg/kg diet, CD1530 […]100 ml drinking water, 4-NQO group 5.9±3.2): 5.3±1.4; average severity of tongue lesions (grade 0-4) ([7]; same model, 4-NQO group 2.8±0.8): 1.9±1.2; lesions at grade 1 ([7]; same model, 4-NQO group all lesions at or greater than grade 2): 50%
